pEC50: −log10 of the molar value.
Experiment: Reversal of P-gp-mediated multidrug resistance to vinblastine in human CEM/VLB500 cells after 3 days by resazurin assay

| SMILES | pEC50 |
| --- | --- |
| COc1ccc(CCN2CCC[C@H]2CNC(=O)c2ccccc2NC(=O)c2cnc3ccccc3c2)cc1OC [(S) N-(2-((1-(3,4-dimethoxyphenethyl)pyrrolidin-2-yl)methylcarbamoyl)phenyl)quinoline-3-carboxamide] | 6.48 |
| COc1ccc(CN2CCN(c3ccc(NC(=O)c4cc(OC)c(OC)cc4NC(=O)c4cnc5ccccc5c4)cc3)CC2)cc1OC [N-(2-(4-(4-(3,4-dimethoxybenzyl)piperazin-1-yl)phenylcarbamoyl)-4,5-dimethoxyphenyl)quinoline-3-carboxamide] | 7.23 |
| COc1ccc(CCN2CCC[C@@H]2CNC(=O)c2ccccc2NC(=O)c2cnc3ccccc3c2)cc1OC [(R) N-(2-((1-(3,4-dimethoxyphenethyl)pyrrolidin-2-yl)methylcarbamoyl)phenyl)quinoline-3-carboxamide] | 6.32 |
| COc1cc2c(cc1OC)CN(CCc1ccc(NC(=O)c3cc(OC)c(OC)cc3NC(=O)c3cnc4ccccc4c3)cc1)CC2 | 7.17 |
| O=C(Nc1ccccc1C(=O)N[C@@H]1CCCC[C@@H]1N1CCN(c2ccccc2)CC1)c1cnc2ccccc2c1 (racemic) [rac-cis-N-(2-(2-(4-phenylpiperazin-1-yl)cyclohexylcarbamoyl)phenyl)quinoline-3-carboxamide] | 6.19 |
| COc1ccc(CN2CCN(c3ccc(NC(=O)c4ccccc4NC(=O)c4cnc5ccccc5c4)cc3)CC2)cc1OC [N-(2-(4-(4-(3,4-dimethoxybenzyl)piperazin-1-yl)phenylcarbamoyl)phenyl)quinoline-3-carboxamide] | 6.91 |

Reference: BindingDB's records for doi:10.1016/j.bmc.2007.03.014 (Universit&#233, 2007)
